Broadly, the inhibition is how much of the control response was suppressed.

For experiment [1], the system named is norepinephrine uptake into the synaptosomes. As to the kind of experiment: Inhibition of catecholamine uptake: 3H-norepinephrine uptake into synaptosomes. The conditions noted are these: 1 μM; norepinephrine uptake in the absence of drug compounds taken as 100. The experiment is classed as biochemical, rats (F344/Crj). On the procedure:
(§1) Inhibition of Catecholamine Uptake:
(§2) A crude synaptosomal fraction (P2) was obtained from the brain of rats (F344/Crj) in the usual manner. In accordance with the method of S. H. Snyder and J. T. Coyle described in Journal of Pharmacology and Experimental Therapeutics, 165(1), 78-86, 1969, the fraction P2 was incubated in a Krebs-Henseleit bicarbonate buffer solution at 37° C. for 10 minutes together with 50 nM ^3 H-norepinephrine (0.25 jμCi). Thereafter, the uptake of norepinephrine into the synaptosomes was measured by the filtration method. Selected compounds were added at a concentration of 1 μM to the solution being incubated and their effect on norepinephrine uptake was examined. The control drug was tetrahydroaminoacridine (THA).
The results are shown in Table 3 in terms of percentage, with norepinephrine uptake in the absence of drug compounds being taken as 100.

Another experiment concerns male rats (F344). The format is in vivo. Conditions: p<0.05, n=6, AF64AP-treated rats.
Experiment [2] has as its system uptake of dopamine into synaptosomes. As to the kind of experiment: Inhibition of catecholamine uptake: 3H-dopamine uptake into synaptosomes. The experiment is classed as biochemical, rats (F344/Crj). Conditions: 1 μM; dopamine uptake in the absence of drugs taken as 100. How it is done: as §2, §1
The uptake of dopamine into synaptosomes was measured by repeating the procedure of Test Example 2 except that 50 nM ^3 H-norepinephrine (0.25 μCi) was replaced by 15 nM ^3 H-dopamine (0.68 μCi). The control drug was tetrahydroaminoacridine (THA). The result is shown in Table 5 in terms of percentage, with dopamine uptake in the absence of drugs being taken as 100.

The test system of the next experiment is male ICR mice. The experiment can be described thus: Improvement of memory and learning ability tested by passive avoidance response. The format is in vivo. Conditions: dose 10 (μg/kg i.p.); retention trial 24 hours after acquisition trial. On the procedure:
Improvement of memory and Learning Ability Tested by Passive Avoidance Response:
Four groups of male ICR mice (10-14 weeks old). each consisting of 10 animals, were used in the experiment. Except for one control group, the mice were administered with selected compounds of the present invention. The experimental chamber consisted of a light and a dark compartment and an electric current shock source was connected to the floor grid in the dark compartment.
The experimental sessions consisted of acclimation. acquisition, and retention trials and were performed for […], one trial per day. In the acclimation trial, animals were placed in the light compartment of the experimental chamber and left there for 5 minutes to acclimate them to the apparatus. In the acquisition trial which was conducted on the 2nd day, the animals were placed in the light compartment and when they entered the dark compartment, they were confined and given an a.c. electric shock (1 mA) through the floor grid for 10 seconds. In the retention trial which was conducted 24 hours after the acquisition trial, the animals were placed in the light compartment of the chamber and the step-through latency (i.e., the time required for the animals to enter the dark compartment) was measured. A physiological saline solution was administered at the acclimation trial to all of the animals. At the acquisition trial, selected compounds were administered in amounts of 10 μg/kg of body weight (1 ml/100 g). The control group was administered the same amount of physiological saline solution 60 minutes before the start of the trial. All administrations were intraperitoneal.

In another experiment the target is T1, MAO-A (Rattus norvegicus, UniProt P21396).
T1 construct: A crude synaptosomal fraction (P2) was obtained from the brain of rats (F344/Crj); from tissue; host or cells: rat (F344/Crj) brain, crude synaptosomal fraction (P2), homogenized
T1 sequence (P21396 1-526): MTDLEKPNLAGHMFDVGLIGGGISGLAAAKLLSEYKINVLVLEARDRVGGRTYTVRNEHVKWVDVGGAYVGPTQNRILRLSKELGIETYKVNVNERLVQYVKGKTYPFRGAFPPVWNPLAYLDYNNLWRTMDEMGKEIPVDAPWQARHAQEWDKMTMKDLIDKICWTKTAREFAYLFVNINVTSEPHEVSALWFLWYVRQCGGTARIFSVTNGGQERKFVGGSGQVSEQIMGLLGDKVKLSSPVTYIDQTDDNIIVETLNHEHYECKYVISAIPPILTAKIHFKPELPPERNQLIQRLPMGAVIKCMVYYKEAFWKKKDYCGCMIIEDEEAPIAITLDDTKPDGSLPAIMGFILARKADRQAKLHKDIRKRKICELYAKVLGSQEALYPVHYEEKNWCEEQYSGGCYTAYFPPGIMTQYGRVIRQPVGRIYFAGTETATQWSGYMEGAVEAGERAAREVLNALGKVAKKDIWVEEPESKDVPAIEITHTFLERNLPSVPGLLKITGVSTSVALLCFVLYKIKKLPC
The experiment can be described thus: Inhibition of monoamine oxidase: MAO-A. The experiment is classed as biochemical, rats (F344/Crj). The conditions noted are these: read-out: Inhibition rate (%) MAO-A. How it is done: (§3) Inhibition of Monoamine Oxidase (MAO):
(§4) A crude synaptosomal fraction (P2) was obtained from the brain of rats (F344/Crj) in the usual manner and homogenized to perform MAO activity measurements. The substrate was 12 μM [^14 C]-serotonin in the case of MAO-A activity measurements, and 5 μM [^14 C]-2-phenethylamine in the case of MAO-B activity measurements. In accordance with the method of R. J. Wurtman and J. Axelrod described in Biochemical Pharmacol. 12, […], 1963, the homogenates were incubated in 100 mM phosphate buffer (pH 7.4) at 37° C. for 20 minutes and the effect of adding selected compounds at a concentration of 10 μM was evaluated.

In a further experiment the target is T2, acetylcholinesterase (Electrophorus electricus, UniProt O42275).
T2 construct: purchased Sigma C-2888
T2 sequence (O42275 24-633): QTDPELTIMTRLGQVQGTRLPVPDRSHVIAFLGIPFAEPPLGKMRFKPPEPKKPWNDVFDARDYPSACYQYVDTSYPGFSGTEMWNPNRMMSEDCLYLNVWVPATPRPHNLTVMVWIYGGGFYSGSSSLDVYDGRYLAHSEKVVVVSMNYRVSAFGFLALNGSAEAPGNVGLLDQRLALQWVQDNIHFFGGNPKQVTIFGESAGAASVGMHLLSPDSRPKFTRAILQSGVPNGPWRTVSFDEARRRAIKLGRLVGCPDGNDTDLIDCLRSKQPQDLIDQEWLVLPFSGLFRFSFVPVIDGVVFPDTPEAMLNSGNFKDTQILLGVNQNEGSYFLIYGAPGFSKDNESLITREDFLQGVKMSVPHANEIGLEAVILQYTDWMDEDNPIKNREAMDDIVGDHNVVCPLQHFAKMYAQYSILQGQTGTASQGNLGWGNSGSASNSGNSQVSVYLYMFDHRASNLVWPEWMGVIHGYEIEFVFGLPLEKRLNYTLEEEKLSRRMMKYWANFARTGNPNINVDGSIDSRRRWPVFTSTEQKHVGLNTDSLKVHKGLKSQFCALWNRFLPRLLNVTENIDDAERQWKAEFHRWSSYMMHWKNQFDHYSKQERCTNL
The experiment can be described thus: Inhibition of acetylcholinesterase activity. The conditions noted are these: activity without drug compound taken as 100, average of three measurements, read-out: Inhibition rate (%). The experiment is classed as biochemical. On the procedure:
Inhibition of Acetylcholinesterase Activity:
Acetylcholinesterase activity was assayed in accordance with the method of S. H. Sterri and F. Fonnum described in European Journal of Biochemistry, 91: 215-222, 1978. The method consisted of incubating 0.5 μU of authentic acetylcholinesterase ([…]) (Sigma, No. C-2888) at 30° C. for 15 minutes in a 20 mM sodium phosphate buffer (pH 7.4). with 1.3 mM [1^-14 C] acetylcholine (0.025 μCi) being used as a substrate. Selected compounds of the general formula (I) were added at a concentration of 1 μM to the reaction solution and the resulting effect on enzymatic activity was evaluated.
The result was obtained as the average of three measurements and shown in Table 2 in terms of percentage, with the activity for the case where no drum compound was added being taken as 100.

Another experiment addresses T3, MAO-B (Rattus norvegicus, UniProt P19643).
T3 construct: A crude synaptosomal fraction (P2) was obtained from the brain of rats (F344/Crj); from tissue; host or cells: rat (F344/Crj) brain, crude synaptosomal fraction (P2), homogenized
T3 sequence (P19643 1-520): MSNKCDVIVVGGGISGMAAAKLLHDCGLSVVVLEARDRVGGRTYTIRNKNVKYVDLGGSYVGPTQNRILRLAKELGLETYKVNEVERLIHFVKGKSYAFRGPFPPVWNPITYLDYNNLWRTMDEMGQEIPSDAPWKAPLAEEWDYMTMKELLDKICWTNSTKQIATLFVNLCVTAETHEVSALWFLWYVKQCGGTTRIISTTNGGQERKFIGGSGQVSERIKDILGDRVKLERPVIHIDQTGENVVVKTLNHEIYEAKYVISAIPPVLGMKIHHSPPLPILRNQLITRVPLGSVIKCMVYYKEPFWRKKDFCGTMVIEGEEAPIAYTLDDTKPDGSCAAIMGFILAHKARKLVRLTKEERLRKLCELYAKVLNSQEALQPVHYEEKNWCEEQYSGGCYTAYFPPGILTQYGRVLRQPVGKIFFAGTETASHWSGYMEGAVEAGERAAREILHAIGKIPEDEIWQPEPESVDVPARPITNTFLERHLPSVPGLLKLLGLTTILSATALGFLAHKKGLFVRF
The experiment can be described thus: Inhibition of monoamine oxidase: MAO-B. The format is biochemical, rats (F344/Crj). The conditions noted are these: read-out: Inhibition rate (%) MAO-B. How it is done:
as §3, §4

[3] abbreviates: 10 μM, 12 μM [14C]-serotonin substrate, None = 100.
Where [4] appears, read: 10 μM, 5 μM [14C]-2-phenethylamine substrate, None = 100.

Read-outs that look alike come from different tables or passages of the source.

In the case of `Nc1c(N2CCCCC2)c(C2CCCCC2=O)nc2ccccc12` (stereo not shown) [Compound 7, 4-amino-3-piperidino-2-(2'-oxocyclohexyl)quinoline], the “Inhibition rate (%)” value in experiment [1] is given as 79.0%; in experiment [2], 86.4%. Also, the “number of correct responses vs vehicle control” value with male rats (F344) (10 mg/kg orally) and in the experiment with male rats (F344) (30 mg/kg orally) was “statistically significant increase in the number of correct responses” each time. The “Step through latency” value with male ICR mice stood at 104.1 ± 28.5 s. In addition, the inhibition at 10 µM at MAO-A (setting [3]) amounted to 58.7%; at MAO-B (setting [4]), 87.5%. The inhibition at 1 µM at acetylcholinesterase stood at 38.1%.
Regarding `Nc1c2c(nc(C3CCCCC3O)c1N1CCCCC1)CCCC2` (stereo not shown) [Compound 9], the “Inhibition rate (%)” value in experiment [1] is listed as 69.4%; in experiment [2], 78.6%. In addition, in the experiment with male ICR mice, the “Step through latency” value was 54.4 ± 7.2 s. Further, the inhibition at 10 µM at MAO-A (setting [3]) is 59.4%; on MAO-B (setting [4]), 89.4%. Also, the inhibition at 1 µM at acetylcholinesterase is 38.8%.
Regarding `Nc1ccnc(C2CCCCC2=O)c1N1CCOCC1` (stereo not shown) [Compound 49], the “Inhibition rate (%)” value in experiment [2] turned out to be 67.5%. The inhibition at 10 µM on MAO-A (setting [3]) is 54.5%; at MAO-B (setting [4]), 71.2%.
Regarding `CCNc1c(N2CCOCC2)nc2ccccc2c1N` [Compound 52, 4-amino-3-ethylamino-2-morpholinoquinoline], the “Inhibition rate (%)” value in experiment [1] turned out to be 79.8%; in experiment [2], 57.8%. For the same molecule, the inhibition at 10 µM on MAO-A (setting [3]) amounted to 0%; on MAO-B (setting [4]), 63%.
For `Nc1c2c(nc3ccccc13)CCCC2` [control, tetrahydroaminoacridine, reference compound], the inhibition at 10 µM at MAO-A is 60.8%; on MAO-B it was 90.3%.
In the case of `Nc1c(N2CCCCC2)cnc2ccccc12` [drawing 149], the inhibition at 10 µM amounted to 44.1% on MAO-A (setting [3]) and 82.9% on MAO-B (setting [4]).
